Assay results taken from patent publication US9670159B2, “Pharmaceutical composition of a papillomavirus inhibitor” (AVIRAGEN THERAPEUTICS, INC., priority 2012, dated 2017).

Columns and labels:
[1] = tested on: E1 and E2 protein-dependent viral replication of HPV11; experiment: Replication test (replicon reporter vector, luciferase); format: cell-based; conditions: Homo sapiens, read-out: IC50 on E1 and E2 protein-dependent viral replication of HPV11 in cells
Source text: (§1) In the present invention two types of tests are used to study the biological activity of compounds against papillomavirus. A first test (“E1/E2 interaction test”) evaluates the interaction between the E1 and E2 proteins of HPV (human papillomavirus) in human cells. A second test (“replication test”) measures the replication of viral genomic DNA in human cells.
The test of replication of viral genomic DNA is based on the co-transfection of a reporter vector containing an HPV origin of replication (ori) and expression vectors coding the E1 and E2 proteins of HPV. It makes it possible to follow the set of biological functions of E1 and E2 required for replication of the genome of the HPVs. […]
Compound (Ia), either in solution or in pharmaceutical compositions (a), (d), (f) and (g), was also evaluated for its inhibitory activity on the E1- and E2-dependent viral replication of HPV11/HPV6 in human cell lines derived from renal epithelial cells or cervical carcinoma cells. Various doses (0.25-40 μM) were incubated in the cell medium for 2 to 6 days after transfection, and luciferase activity was measured using a luminometer to determine the IC50 of the compound on the replication of the genome of the HPVs.

[2] = Solubility of the potassium salt in comparison with the hydrochloride; format: physicochemical; conditions: potassium salt in comparison with its hydrochloride
[3] = molecular target: interaction between the E1 and E2 proteins of HPV11/HPV6 (Human papillomavirus 11, UniProt P04014+P04015); experiment: E1/E2 interaction test (luciferase reporter, mammalian two-hybrid type); format: cell-based
Source text: as §1
The test of interaction between E1 and E2 is similar to the tests often called “mammalian two-hybrid” tests. It is based on co-transfection of a reporter vector containing DNA binding sites for the E2 protein of HPV in the promoter controlling expression of the reporter gene, and of expression vectors coding the E1 and E2 proteins of HPV, the E1 protein being fused to the VP16 transactivation domain. […]
Compound (Ia), either in solution or in pharmaceutical compositions (a), (d), (f) and (g), was evaluated for its inhibitory activity on the interaction between the E1 and E2 proteins of HPV11/HPV6 in human cell lines derived from renal epithelial cells or cervical carcinoma cells. Various doses (0.25-40 μM) were incubated in the cell medium for 2 days after transfection, and luciferase activity was measured to determine the IC50 of the compound on the interaction between the E1 and E2 proteins of the HPVs.

[4] = Percutaneous absorption in vitro on human skin mounted on a Franz cell; format: in vitro ADME; conditions: 8 hours of diffusion
Description: The percutaneous absorption of compound (Ia) from pharmaceutical composition (g) was studied after the application of a dose of 10 mg/cm^2 on human skin mounted on a Franz cell. This study was carried out by comparing percutaneous absorption on healthy skin and on delaminated skin, as a model of the weak keratinization of the anogenital region.
After 8 or 24 hours of exposure to pharmaceutical composition (g), the quantity of compound (Ia) present in each skin layer (stratum corneum, epidermis, dermis) and that having crossed the skin (receiving fluid) is quantified by HPLC.
The stratum corneum of the non-delaminated skin samples is removed from the epidermis by peeling with adhesive. The latter is applied to the skin surface under constant and controlled pressure.

interaction between the E1 and E2 proteins of HPV11/HPV6, sequence (P04014 whole entry): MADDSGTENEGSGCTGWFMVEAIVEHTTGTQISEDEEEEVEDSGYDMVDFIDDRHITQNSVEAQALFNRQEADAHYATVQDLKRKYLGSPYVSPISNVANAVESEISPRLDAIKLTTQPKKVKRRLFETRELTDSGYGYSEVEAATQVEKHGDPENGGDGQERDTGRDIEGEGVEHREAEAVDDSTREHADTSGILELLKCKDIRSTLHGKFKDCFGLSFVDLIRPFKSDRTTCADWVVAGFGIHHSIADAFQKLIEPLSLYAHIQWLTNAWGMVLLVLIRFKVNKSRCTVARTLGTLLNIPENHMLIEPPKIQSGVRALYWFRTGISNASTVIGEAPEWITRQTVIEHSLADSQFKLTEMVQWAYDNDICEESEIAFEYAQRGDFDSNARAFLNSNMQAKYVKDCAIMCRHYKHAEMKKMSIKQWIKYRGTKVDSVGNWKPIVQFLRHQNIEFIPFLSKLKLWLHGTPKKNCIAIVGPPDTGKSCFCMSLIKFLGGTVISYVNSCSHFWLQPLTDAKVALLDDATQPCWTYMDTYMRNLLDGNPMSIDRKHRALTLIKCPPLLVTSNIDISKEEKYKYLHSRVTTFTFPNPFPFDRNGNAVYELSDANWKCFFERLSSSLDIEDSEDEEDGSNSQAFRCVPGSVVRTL
interaction between the E1 and E2 proteins of HPV11/HPV6, sequence (P04015 whole entry): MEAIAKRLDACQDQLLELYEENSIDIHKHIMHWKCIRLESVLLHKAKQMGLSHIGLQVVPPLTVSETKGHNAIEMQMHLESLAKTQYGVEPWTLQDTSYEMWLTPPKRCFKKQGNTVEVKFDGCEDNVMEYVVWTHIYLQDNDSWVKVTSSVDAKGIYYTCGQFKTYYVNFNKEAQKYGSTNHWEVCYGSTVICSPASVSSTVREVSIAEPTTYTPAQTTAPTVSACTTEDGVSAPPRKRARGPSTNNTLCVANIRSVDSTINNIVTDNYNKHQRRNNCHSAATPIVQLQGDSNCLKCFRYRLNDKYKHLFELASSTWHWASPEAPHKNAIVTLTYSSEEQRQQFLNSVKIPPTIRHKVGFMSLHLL

COc1cc(CC(=O)NN(c2ccc(Cc3ccccc3)cc2)c2c(C)cccc2N2CCCCC2)c(Br)cc1C(=O)O [Compound (Ia), 4-[N′-(4-benzyl-phenyl)-N′-(2-methyl-6-piperidin-1-yl-phenyl)-hydrazinocarbonylmethyl]-5-bromo-2-methoxy-benzoic acid]
IC50 [1]: ~1000 nM | solubility [2]: increases the solubility | IC50 [3]: ~1000 nM | local concentration in the skin relative to the IC50 measured in cellulo ([4]; delaminated skin): 1000 times | local concentration in the skin relative to the IC50 measured in cellulo ([4]; healthy skin): 100 times
